Laboratory results published in patent publication US4962113A, “Pyridinium derivatives, their production and use” (Takeda Chemical Industries, Ltd, priority 1987, dated 1990).
Read-outs that look alike come from different tables or passages of the source.

Experiments:
[1] = tested on: platelet aggregation (PAF); assay: Inhibitory action on PAF-induced rabbit platelet aggregation; format: cell-based; conditions: Oryctolagus cuniculus, read-out: inhibitory percentage (platelet aggregation); for inhibition at 3 µM: 3 × 10^-6 M; for inhibition at 0.3 µM: 3 × 10^-7 M; for inhibition at 0.03 µM: 3 × 10^-8 M
Protocol: Blood was collected directly from the hearts of male rabbits using a syringe containing, as an anticoagulant, 3.15% citric acid (one part to 9 parts of blood). The blood was subjected to centrifuge at 800 rpm for ten minutes at room temperature to obtain platelet rich plasma (PRP). The remaining blood was further subjected to centrifuge at 3000 rpm for ten minnutes to separate platelet poor plasma (PPP) as the supernatant. PRP was diluted with PPP, and the number of platelets was adjusted to about 500,000/ μl. This PRP(250 μl) was stirred for two minutes at 37° C., and there was added a test sample, and the mixture was stirred for further two minutes, followed by addition of PAF of a given concentration. Platelet aggregation was examined by means of a platelet-agglutometer (manufactured by Rika Denki). Platelet aggregation preventing action of the test sample was determined based on the maximum percent light transmission (maximum percent. agglutination).

PAF-induced hypotension = assay: Inhibitory action on PAF-induced hypotension in rats; format: in vivo, rat (Sprague-Dawley); conditions: Rattus norvegicus, read-out: Inhibitory Rate (Lowering of Blood Pressure); for inhibition in vivo at 0.01 mg/kg / inhibition in vivo at 0.03 mg/kg / inhibition in vivo at 0.1 mg/kg: iv; for inhibition in vivo at 1 mg/kg / inhibition in vivo at 3 mg/kg / inhibition in vivo at 10 mg/kg: oral
Protocol: Sprague-Dawley male rats, each weighing about 250 g, were subjected to the experiment. The rats were cannulated on the side of femoral artery for measuring the blood pressure, and on the side of femoral vein for administering the drug. The blood pressure was measured through a pressure transducer and recorded. First, PAF (1 μg/kg) was administered intravenously (i.v.) to examine the extent of lowering of blood pressure. Then, the test samples were administered intravenously or orally. […]
The inhibitory action on PAF-induced hypotension (% inhibition) is indicated as the ratio of blood pressure-lowering degree (Δ mmHg) induced by PAF after administration of test samples relative to blood pressure-lowering degree (Δ mmHg) induced by PAF before administration of test samples.

Row | SMILES | inhibition at 3 µM [1] [%] | inhibition at 0.3 µM [1] [%] | inhibition at 0.03 µM [1] [%] | inhibition in vivo at 0.03 mg/kg (PAF-induced hypotension; 1 hr.) [%] | inhibition in vivo at 0.03 mg/kg (PAF-induced hypotension; 2 hr.) [%] | inhibition in vivo at 0.03 mg/kg (PAF-induced hypotension; 4 hr.) [%] | inhibition in vivo at 0.03 mg/kg (PAF-induced hypotension; 6 hr.) [%] | inhibition in vivo at 0.03 mg/kg (PAF-induced hypotension; 8 hr.) [%] | inhibition in vivo at 0.03 mg/kg (PAF-induced hypotension; 5 min, i.v., 5 min.) [%] | inhibition in vivo at 1 mg/kg (PAF-induced hypotension; 1 hr.) [%] | inhibition in vivo at 1 mg/kg (PAF-induced hypotension; 2 hr.) [%] | inhibition in vivo at 1 mg/kg (PAF-induced hypotension; 4 hr.) [%] | inhibition in vivo at 1 mg/kg (PAF-induced hypotension; 6 hr.) [%] | inhibition in vivo at 1 mg/kg (PAF-induced hypotension; 8 hr.) [%] | inhibition in vivo at 3 mg/kg (PAF-induced hypotension; 1 hr.) [%] | inhibition in vivo at 3 mg/kg (PAF-induced hypotension; 2 hr.) [%] | inhibition in vivo at 3 mg/kg (PAF-induced hypotension; 4 hr.) [%] | inhibition in vivo at 3 mg/kg (PAF-induced hypotension; 6 hr.) [%] | inhibition in vivo at 3 mg/kg (PAF-induced hypotension; 8 hr.) [%] | other results
1 | CCC[n+]1cc(Br)cc(C(=O)N(CCOC(=O)NCCOC(=O)Nc2cccc3ccccc23)c2cccc(Cl)c2)c1 [Production Example 44, 5-bromo-3-[N-(3-chlorophenyl)-N-[2-[2-(1-naphthylcarbamoyloxy)ethyl]carbamoyloxy]ethyl]carbamoyl-1-propylpyridinium chloride] | 100 | 100 | 27 | 81 | 71 | 64 | 59 | 39 | 97 | 62 | 74 | 73 | 68 | 61 | 77 | 84 | 97 | 94 | 92 | inhibition in vivo at 0.01 mg/kg (PAF-induced hypotension; 1 hr.): 58%; inhibition in vivo at 0.01 mg/kg (PAF-induced hypotension; 2 hr.): 54%; inhibition in vivo at 0.01 mg/kg (PAF-induced hypotension; 4 hr.): 47%; inhibition in vivo at 0.01 mg/kg (PAF-induced hypotension; 6 hr.): 41%; inhibition in vivo at 0.01 mg/kg (PAF-induced hypotension; 5 min, i.v., 5 min.): 68%
2 | CCC[n+]1cc(Br)cc(C(=O)N(CCC(=O)NCCNS(=O)(=O)c2ccc3ccccc3c2)c2ccccc2)c1 [Production Example 98, 5-Bromo-3-[N-[2-[2-(2-naphthylsulfonamidoethyl]carbamoyl]ethyl-N-phenyl]carbamoyl-1-propylpyridinium chloride] | 100 | 100 | 16 | – | – | – | – | – | – | 70 | 74 | 74 | 70 | 69 | 87 | 91 | 93 | 93 | 89 | –
3 | CCC[n+]1cc(Br)cc(C(=O)N(CCC(=O)NCCNC(=O)c2cccc3ccccc23)c2ccccc2)c1 [Production Example 108, 5-Bromo-3-[N-[2-[2-(1-naphthoylamino)ethyl]carbamoyl]ethyl-N-phenyl]carbamoyl-1-propylpyridinium chloride] | 100 | 37 | 5 | – | – | – | – | – | – | 64 | 61 | 55 | 51 | 42 | 92 | 86 | 94 | 94 | 72 | inhibition in vivo at 0.1 mg/kg (PAF-induced hypotension; 1 hr.): 100%; inhibition in vivo at 0.1 mg/kg (PAF-induced hypotension; 2 hr.): 97%; inhibition in vivo at 0.1 mg/kg (PAF-induced hypotension; 4 hr.): 75%; inhibition in vivo at 0.1 mg/kg (PAF-induced hypotension; 6 hr.): 58%; inhibition in vivo at 0.1 mg/kg (PAF-induced hypotension; 8 hr.): 45%; inhibition in vivo at 0.1 mg/kg (PAF-induced hypotension; 5 min, i.v., 5 min.): 100%
4 | CCC[n+]1cc(Br)cc(C(=O)N(CCOC(=O)NCCCOC(=O)Nc2cccc3ccccc23)c2ccccc2)c1 [Production Example 52, 5-bromo-3-[N-2-[3-(1-naphthylcarbamoyloxy)propyl]carbamoyloxy]ethyl-N-phenyl]carbamoyl-1-propyl pyridinium chloride] | 100 | 100 | 27 | – | – | – | – | – | – | 30 | 47 | 37 | 51 | 31 | 87 | 92 | 89 | 88 | 81 | inhibition in vivo at 10 mg/kg (PAF-induced hypotension; 1 hr.): 92%; inhibition in vivo at 10 mg/kg (PAF-induced hypotension; 2 hr.): 95%; inhibition in vivo at 10 mg/kg (PAF-induced hypotension; 4 hr.): 98%; inhibition in vivo at 10 mg/kg (PAF-induced hypotension; 6 hr.): 96%; inhibition in vivo at 10 mg/kg (PAF-induced hypotension; 8 hr.): 95%
5 | CCC[n+]1cc(Br)cc(C(=O)N(CCOC(=O)NCCOC(=O)N2CCc3ccccc3C2)c2ccccc2)c1 [Production Example 77, 5-Bromo-3-[N-[2-[[2-(1,2,3,4-tetrahydroisoquinolyl)carbonyloxy]ethyl]carbamoyloxy]ethyl-N-phenyl]carbamoyl-1-propylpyridinium chloride] | 100 | 100 | 51 | 100 | 97 | 62 | 46 | 33 | 100 | 56 | 64 | 72 | 66 | 59 | 89 | 100 | 99 | 99 | 97 | –
6 | CCC[n+]1cc(Br)cc(C(=O)N(CCOC(=O)NCCOC(=O)Nc2cccc3ccccc23)c2cccc(OC)c2)c1 [Production Example 94, 5-Bromo-3-[N-(3-methoxyphenyl)-N-[2-[2-(1-naphthylcarbamoyloxy)ethyl]carbamoyloxy]ethyl]carbamoyl-1-propylpyridinium chloride] | 100 | 99 | 10 | 94 | 86 | 70 | 63 | 52 | 100 | 27 | 34 | 50 | 50 | 40 | 67 | 89 | 93 | 97 | 90 | –
